For test [1], the system named is pAuroraB(Thr 232), pH3(Ser 10), pH3(Ser 28) in HeLa cells. As to the kind of experiment: Immunoblotting of pAuroraB(Thr 232), pH3(Ser 28) and pH3(Ser 10). In kind it is cell-based, human. Particulars: immunoblot; for Effect on pH3(Ser 10), pH3(Ser 28), pAuroraB(Thr 232): dose–response. A general note: In western blotting, separated proteins are transferred to a membrane and probed.

In test [2] the test system is pLATS2(Ser 83) in RPE1 cells. As to the kind of experiment: Substrate phosphorylation immunofluorescence assay, pLATS2(Ser 83), RPE1. In kind it is cell-based, human. Particulars: for IC50: Homo sapiens, read-out: pLATS2 (Ser83) IC50. As for the experimental part: (§1) We employed the protocol described in Figure 3D to analyze substrate phosphorylation in HeLa cells following treatment with all 10 inhibitors in dose–response. Asynchronous cells were incubated with vehicle (DMSO) or different inhibitor doses for 8 h and then fixed and labeled with a mixture of three antibodies directed against pLATS2(Ser 83), pH3(Ser 28), and MPM2 [which detects mitotic phosphoepitopes; ([86])]. While both the anti-pLATS2(Ser 83) and MPM2 antibodies are mouse monoclonals, they are of different IgG subclasses [IgG2b for anti-pLATS2(Ser 83) and IgG1 for MPM2], and can thus be detected with subclass-specific secondary antibodies (Table S3 in Supplementary Material).
(§2) In control mitotic cells, pLATS2(Ser 83) is concentrated in foci around the spindle poles (Figure 3E; top row – green arrow) and pH3(Ser 28) is on the mitotic chromatin (Figure 3E; top row – red arrow). Selective kinase inhibition should result in loss of one signal but not the other, as illustrated by the example images for specific conditions in Figure 3E (middle and bottom rows). Cells were imaged in 4 channels to visualize pLATS2(Ser 83), pH3(Ser 28), MPM2, and DNA (labeled with Hoechst) and mitotic cells were segmented based on their bright MPM2 labeling (Figure 3E). Intensity and area thresholds were set to select the pLATS2(Ser 83) foci and the pH3(Ser 28)-labeled chromatin in their respective channels in DMSO-treated control cells and the same thresholds were applied for inhibitor-treated cells. The mean fluorescence intensity per pixel was measured to assess the activities of the kinases targeting these two substrate phosphorylation sites.
(§3) Twelve thousand HeLa cells, 10,000 U2OS cells, or 8,000 RPE1 cells were seeded into 96-well glass-bottom Sensoplates (Greiner) 16 h before inhibitor addition. Prior to seeding, the glass-bottom plates were coated with poly-L-lysine (Sigma). […] After 8 h cells were fixed with 4% PFA for 20 min at room temperature. The fixed cells were washed with PBS. For immunostaining, cells were permeabilized and blocked with PBS containing 10% normal donkey serum (Jackson ImmunoResearch) and 0.1% Triton-X100 for 1 h at room temperature. Primary antibodies against phospho-LATS2 (Ser 83), phospho-histone H3(Ser 28), and anti-phospho-MPM2 (see Table S3 in Supplementary Material) were incubated for 1 h at room temperature. […] Cells were then washed twice with PBS containing 0.1% Triton-X100. Image acquisition in four channels was performed using a CV7000 spinning disk confocal system (Yokogawa Electric Corporation) with a 40 × 0.95 NA U-PlanApo objective and 2560 × 2160 pixel sCMOS camera. […] Fifty fields per well were imaged with quadruplicate wells for each condition. Image analysis was done using the CV7000 image analysis software (Yokogawa Electric Corporation). Between 100 and 1,000 mitotic cells per condition were segmented applying object identification parameters to select for bright MPM2 labeling. Using a nuclear identifier protocol, minimum intensity thresholds were set for pLATS2(Ser 83) and the pH3(Ser 28) signals, and the resulting identified objects were eroded, dilated, and filtered for size by user-defined thresholds. For only the MPM2-positive mitotic cells, the mean fluorescence intensity of the identified pLATS2(Ser 83) and pH3(Ser 28) objects was measured, and the average intensity per cell per well was calculated. The same thresholds were applied for all of the inhibitor-treated samples, which were processed, imaged, and analyzed in parallel with control DMSO-treated cells. Data were fit using a four-parameter, variable slope fit in Prism (GraphPad). Primary and secondary antibody dilutions can be found in Table S3 in Supplementary Material.

The test system of test [3] is pLATS2(Ser 83) in U2OS cells. As to the kind of experiment: Substrate phosphorylation immunofluorescence assay, pLATS2(Ser 83), U2OS. In kind it is cell-based, human. Particulars: for IC50: Homo sapiens, read-out: pLATS2 (Ser83) IC50. As for the experimental part: as §1, §2, §3
Test [4] relates to pH3(Ser 28) in HeLa cells. As to the kind of experiment: Substrate phosphorylation immunofluorescence assay, pH3(Ser 28), HeLa. It is filed as cell-based, human. Particulars: for pHistone H3 (Ser28) IC50: 8 h inhibitor treatment.
Method: After 8 h cells were fixed with 4% PFA for 20 min at room temperature. The fixed cells were washed with PBS. For immunostaining, cells were permeabilized and blocked with PBS containing 10% normal donkey serum (Jackson ImmunoResearch) and 0.1% Triton-X100 for 1 h at room temperature. Primary antibodies against phospho-LATS2 (Ser 83), phospho-histone H3(Ser 28), and anti-phospho-MPM2 (see Table S3 in Supplementary Material) were incubated for 1 h at room temperature. […] Cells were then washed twice with PBS containing 0.1% Triton-X100. […] Fifty fields per well were imaged with quadruplicate wells for each condition. Image analysis was done using the CV7000 image analysis software (Yokogawa Electric Corporation). Between 100 and 1,000 mitotic cells per condition were segmented applying object identification parameters to select for bright MPM2 labeling. Using a nuclear identifier protocol, minimum intensity thresholds were set for pLATS2(Ser 83) and the pH3(Ser 28) signals, and the resulting identified objects were eroded, dilated, and filtered for size by user-defined thresholds. […] The same thresholds were applied for all of the inhibitor-treated samples, which were processed, imaged, and analyzed in parallel with control DMSO-treated cells. Data were fit using a four-parameter, variable slope fit in Prism (GraphPad).
Test [5] deals with pLATS2(Ser 83) in HeLa cells. As to the kind of experiment: Substrate phosphorylation immunofluorescence assay, pLATS2(Ser 83), HeLa. It is filed as cell-based, human. As to the method: as §1, §2, §3
For test [6], the target named is T1, 363 human kinases (including Aurora A/B/C) (Homo sapiens, UniProt P36888).
T1 sequence (P36888 27-993): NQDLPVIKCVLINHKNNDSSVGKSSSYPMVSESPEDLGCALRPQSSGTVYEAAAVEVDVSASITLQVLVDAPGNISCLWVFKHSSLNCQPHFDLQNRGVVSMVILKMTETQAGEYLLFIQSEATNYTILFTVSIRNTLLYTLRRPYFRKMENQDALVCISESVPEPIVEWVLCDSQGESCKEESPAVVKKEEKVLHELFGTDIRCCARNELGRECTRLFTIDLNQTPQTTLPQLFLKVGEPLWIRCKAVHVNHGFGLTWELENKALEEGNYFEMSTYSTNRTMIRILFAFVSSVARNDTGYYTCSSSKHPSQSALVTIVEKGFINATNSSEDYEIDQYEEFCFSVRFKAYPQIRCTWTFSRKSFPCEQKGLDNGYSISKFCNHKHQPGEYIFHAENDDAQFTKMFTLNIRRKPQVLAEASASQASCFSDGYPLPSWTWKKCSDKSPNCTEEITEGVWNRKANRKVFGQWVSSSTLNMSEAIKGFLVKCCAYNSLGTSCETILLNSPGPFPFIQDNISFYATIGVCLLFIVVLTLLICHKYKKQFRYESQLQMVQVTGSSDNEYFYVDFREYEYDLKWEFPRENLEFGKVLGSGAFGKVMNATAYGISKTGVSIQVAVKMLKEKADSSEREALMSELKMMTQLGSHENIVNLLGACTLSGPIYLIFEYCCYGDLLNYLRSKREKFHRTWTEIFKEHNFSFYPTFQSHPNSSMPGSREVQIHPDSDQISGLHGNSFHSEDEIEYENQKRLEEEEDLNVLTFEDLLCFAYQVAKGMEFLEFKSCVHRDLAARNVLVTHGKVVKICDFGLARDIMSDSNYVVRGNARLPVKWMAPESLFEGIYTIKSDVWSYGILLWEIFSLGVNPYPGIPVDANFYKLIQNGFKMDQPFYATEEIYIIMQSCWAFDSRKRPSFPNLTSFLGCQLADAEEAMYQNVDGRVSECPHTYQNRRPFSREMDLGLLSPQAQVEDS
As to the kind of experiment: biochemical. Particulars: FLT3, [ATP] 50 µM. In kind it is biochemical.
From the text: (§4) However, the Aurora A/B selectivity ratios derived from our in vitro and in vivo data can be compared to prioritize inhibitors.

The target in test [7] is 363 human kinases (including Aurora A/B/C) (Homo sapiens, UniProt P48730). As to the kind of experiment: biochemical. In kind it is biochemical. Particulars: CK1d, [ATP] 20 µM.
From the text: as §4
[8] abbreviates: 500 nM, read-out: % Enzyme Activity (relative to DMSO controls).
[9] abbreviates: 100 nM, read-out: % Enzyme Activity (relative to DMSO controls).

Broadly, the IC50 is the concentration needed to halve the response being measured.

“Also recorded” adds a separate entry of the source. Where two headings read alike, the source gives them in different places. Some results are limits rather than exact numbers.

363 human kinases (including Aurora A/B/C) (Homo sapiens, UniProt P48730), sequence (P48730 whole entry): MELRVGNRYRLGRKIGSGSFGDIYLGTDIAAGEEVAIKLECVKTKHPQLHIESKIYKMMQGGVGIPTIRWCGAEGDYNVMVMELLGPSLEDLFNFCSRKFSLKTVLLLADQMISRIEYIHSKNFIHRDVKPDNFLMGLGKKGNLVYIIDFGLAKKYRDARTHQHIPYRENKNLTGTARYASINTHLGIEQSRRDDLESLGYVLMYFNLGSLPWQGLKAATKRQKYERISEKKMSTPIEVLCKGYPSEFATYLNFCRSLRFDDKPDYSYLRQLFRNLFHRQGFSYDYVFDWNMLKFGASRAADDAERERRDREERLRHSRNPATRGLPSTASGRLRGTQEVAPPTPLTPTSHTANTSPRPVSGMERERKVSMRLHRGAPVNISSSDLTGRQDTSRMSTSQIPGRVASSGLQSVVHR

As for `O=C(c1cccc(Cl)c1F)N1CCN(Cc2cccc(Nc3nccs3)n2)CC1` [MK-8745], the “Effect on pH3(Ser 10), pH3(Ser 28), pAuroraB(Thr 232)” value (from here on “Effect”) in test [1] is “no effect”. Further, the IC50 is 2300 nM in test [2] (RPE-1, RPE1, 8 h inhibitor treatment); 1700 nM in test [3] (8 h inhibitor treatment); 610 nM in test [5] (HeLa, 8 h inhibitor treatment, read-out: pLATS2 (Ser83) IC50); 600 to 800 nM in test [5] (Homo sapiens, HeLa, 8 h, HeLa, 8 h inhibitor treatment, read-out: pLATS2 (Ser83) IC50). The “pHistone H3 (Ser28) IC50” value in test [4] was “NE (9 μM); also recorded: NE@9 µM”. Further, the “Lowest concentration to maximally inhibit Aurora A in cells relative to lowest AZD1152-HQPA concentration to fully inhibit Aurora B” value in test [5] (cellular assays) is listed as more than 100 fold. Moreover, the “% Enzyme Activity (relative to DMSO controls)” value in test [6] (500 nM) is reported as 88.10%; in test [7] (500 nM), 85.06%. In addition, the remaining activity at 0.5 µM stood at 88.4% in test [6] (setting [8]) and 85.5% in test [7] (setting [8]).

For the molecule `CCn1cc(-c2ccnc3[nH]c(-c4cccc(CN(C)C)c4)cc23)c(-c2ccc(NC(=O)N(C)C)cc2)n1` [GSK1070916], in test [1], the “Concentration eliminating Aurora B activity without affecting pAuroraA (Thr 288)” value is less than 100 nM. Further, the “Effect” value in test [1] is “eliminated”. Besides, the “pLATS2 (Ser83) IC50” value was “NE@200 nM” in test [2] (RPE1, 8 h inhibitor treatment); “NE@200 nM” in test [3] (8 h inhibitor treatment); “NE (100 nM); also recorded: NE@100 nM” in test [5] (HeLa, 8 h inhibitor treatment). Moreover, the “Concentration completely eliminating pH3(Ser 28) labeling without affecting pLATS2(Ser 83) labeling” value in test [4] was less than 100 nM. Also, in test [4] (Homo sapiens, 8 h, read-out: pHistone H3 (Ser28) IC50), the IC50 was found to be 6 nM.

As to `O=C(O)[C@]1(Cc2cccc(Nc3nccs3)n2)CC[C@@H](Oc2cccc(Cl)c2F)CC1` [MK-5108], the “Effect” value in test [1] is “no effect”. Also, the IC50 in test [2] (RPE-1, 8 h) is 1800 nM; in test [3] (8 h) it was 1200 nM; in test [5] (Homo sapiens, HeLa, 8 h, read-out: pLATS2 (Ser83) IC50, HeLa, 8 h inhibitor treatment) it was 600 to 800 nM; in test [5] (read-out: pLATS2 (Ser83) IC50, HeLa, 8 h inhibitor treatment) it was 610 nM. For the same molecule, the “pHistone H3 (Ser28) IC50” value in test [4] is recorded as “NE (9 μM); also recorded: NE@9 μM”. For the same molecule, the remaining activity at 0.1 µM in test [6] (setting [9]) was 58.2%; in test [7] (setting [9]) it was 100%. The remaining activity at 0.5 µM worked out at 30.9% in test [6] (setting [8]) and 86.8% in test [7] (setting [8]).
